US20240316017A1, “NOVEL PYRIDINE DERIVATIVE COMPOUND AS RON INHIBITOR” (LG CHEM, LTD., priority 2021, published 2024)

Tests used:
[1] = target: cMET (Homo sapiens, UniProt P08581); experiment: Evaluation of inhibitory activity against MET (TR-FRET kinase assay); format: biochemical; conditions: cMET protein, TK peptide substrate
Procedure: In addition, in order to measure the enzyme activity inhibition for cMET, the evaluation was performed in the same manner as the enzyme activity inhibition measurement experiment for RON.
(§1) Specifically, the compound was prepared to a concentration of 1 mM in 100% DMSO and was diluted 10 times in a stepwise manner through 3-fold dilution. The compound (2 ul) diluted in a stepwise manner was added to a 96-well-plate containing 48 ul of a 1× kinase reaction buffer (50 mM HEPES (pH 7.4), 0.05% BSA, 0.005% Tween-20, 1 mM DTT, 0.5 mM MnCl2, 20 mM MgCl2).
The cMET protein was diluted to a concentration of 263 nM in a cMET storage buffer (50 mM Tris-HCl (pH 7.5), 150 mM NaCl, 0.05% Brij35, 1 mM DTT, 10% Glycerol), and then diluted again to a concentration of 2 nM in a 1× kinase reaction buffer. As a substrate cocktail, a MET-specific substrate mixed solution (5 uM TK peptide, 10 mM ATP) was prepared at a concentration 2 times the final reaction concentration.
(§2) Thereafter, a 384-well-plate was prepared, and 2.5 μl of each of the diluted compounds of Examples was added to a corresponding well of experimental group wells, and 2.5 μl of a 4% DMSO solution was dispensed into high control wells and low control wells.
(§3) Thereafter, 2.5 μL of 2 nM cMET was dispensed into each of the high control wells and the experimental group wells, and 2.5 μL of the 1×kinase reaction buffer was added to the low control wells, and all the wells were centrifuged at room temperature for 40 seconds at 1,000 RPM, and then incubated at room temperature for 20-30 minutes. Then, 5 uL of the substrate cocktail (2×) was dispensed into each well, and all the wells were centrifuged at room temperature for 40 seconds at 1,000 RPM, and then incubated at room temperature for 60 minutes. Thereafter, 5 uL of 90 mM EDTA was added to each well to terminate the reaction, and all the wells were then incubated again at room temperature for 5 minutes. Thereafter, 5 uL of a 4× phosphotyrosine antibody (Perkin Elmer) containing europium was added to each well, and all the wells were then incubated at room temperature for 60 minutes. After the incubation, the 384-well-plate was read with the Vison plate reader. In this case, the excitation wavelength was 340 nm, and the emission wavelength was 620 nm and 665 nm. The IC50 value of each compound of Examples was derived using the GraphPd Prism7 program.

[2] = target: RON (Homo sapiens, UniProt Q04912); experiment: Evaluation of inhibitory activity against RON (TR-FRET kinase assay); format: biochemical; conditions: RON protein, ULight-labeled Poly GT substrate
Chain of RON (Q04912 25-1400, species assumed): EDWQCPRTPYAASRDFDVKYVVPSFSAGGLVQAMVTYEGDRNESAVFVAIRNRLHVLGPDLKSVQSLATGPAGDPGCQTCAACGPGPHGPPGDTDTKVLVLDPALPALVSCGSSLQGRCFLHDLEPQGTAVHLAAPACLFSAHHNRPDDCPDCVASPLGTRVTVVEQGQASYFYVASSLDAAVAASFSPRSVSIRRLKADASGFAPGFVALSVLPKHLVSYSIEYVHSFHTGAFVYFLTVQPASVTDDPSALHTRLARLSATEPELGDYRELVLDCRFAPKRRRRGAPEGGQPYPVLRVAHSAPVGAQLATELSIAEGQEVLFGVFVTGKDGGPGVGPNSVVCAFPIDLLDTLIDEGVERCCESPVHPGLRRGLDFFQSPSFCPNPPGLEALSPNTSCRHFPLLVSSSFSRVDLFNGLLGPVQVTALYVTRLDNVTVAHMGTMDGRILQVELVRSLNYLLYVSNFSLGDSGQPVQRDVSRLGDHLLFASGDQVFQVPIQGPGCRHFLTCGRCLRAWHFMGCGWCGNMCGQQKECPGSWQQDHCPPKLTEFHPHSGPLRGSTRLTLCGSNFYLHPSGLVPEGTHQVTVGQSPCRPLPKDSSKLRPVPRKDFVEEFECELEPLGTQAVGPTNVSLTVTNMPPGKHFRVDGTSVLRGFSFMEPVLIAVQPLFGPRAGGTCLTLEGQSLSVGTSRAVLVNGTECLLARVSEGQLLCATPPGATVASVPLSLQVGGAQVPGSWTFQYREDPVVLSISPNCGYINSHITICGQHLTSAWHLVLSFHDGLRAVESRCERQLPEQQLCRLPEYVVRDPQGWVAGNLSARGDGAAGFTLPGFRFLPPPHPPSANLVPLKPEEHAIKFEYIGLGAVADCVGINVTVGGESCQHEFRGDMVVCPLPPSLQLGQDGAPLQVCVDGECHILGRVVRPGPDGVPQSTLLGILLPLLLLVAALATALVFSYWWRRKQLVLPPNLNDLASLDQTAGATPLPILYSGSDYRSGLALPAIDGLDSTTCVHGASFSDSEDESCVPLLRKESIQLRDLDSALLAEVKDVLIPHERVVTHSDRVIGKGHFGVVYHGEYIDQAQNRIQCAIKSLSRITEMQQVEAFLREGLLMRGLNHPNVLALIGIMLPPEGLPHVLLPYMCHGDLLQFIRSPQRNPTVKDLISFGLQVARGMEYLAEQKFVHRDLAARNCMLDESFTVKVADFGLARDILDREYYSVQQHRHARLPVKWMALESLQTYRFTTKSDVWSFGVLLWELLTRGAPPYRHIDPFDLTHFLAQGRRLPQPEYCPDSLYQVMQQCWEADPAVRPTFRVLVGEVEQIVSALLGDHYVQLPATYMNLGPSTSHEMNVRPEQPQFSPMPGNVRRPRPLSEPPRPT
Procedure: In order to measure the inhibitory activity of each of the compounds of Examples against RON, the IC50 of each of the compounds was measured using Time-resolved fluorescence energy transfer (TR-FRET).
as §1, with “7.4), 0.01%” for “7.4), 0.05% BSA, 0.005%”, “Tween-20, 5” for “Tween-20, 1”, “mM Na3VO4, 2 mM EGTA, 10” for “mM MnCl2, 20”
The RON protein was diluted to a concentration of 49.3 nM in a RON storage buffer (50 mM Tris-HCl (pH 7.5), 150 mM NaCl, 0.5 mM EDTA, 0.02% Triton X-100), and then diluted again to a concentration of 0.4 nM in a 1×kinase reaction buffer. As a substrate cocktail, a RON-specific substrate mixed solution (40 uM ULight-labeled Poly GT, 100 nM ATP) was prepared at a concentration 2 times the final reaction concentration.
as §2
as §3, with “of 0.4” for “of 2”, “nM RON” for “nM cMET”, “the 1× kinase” for “the 1×kinase”, “of 30” for “of 90”

Chain of cMET (P08581 25-1390): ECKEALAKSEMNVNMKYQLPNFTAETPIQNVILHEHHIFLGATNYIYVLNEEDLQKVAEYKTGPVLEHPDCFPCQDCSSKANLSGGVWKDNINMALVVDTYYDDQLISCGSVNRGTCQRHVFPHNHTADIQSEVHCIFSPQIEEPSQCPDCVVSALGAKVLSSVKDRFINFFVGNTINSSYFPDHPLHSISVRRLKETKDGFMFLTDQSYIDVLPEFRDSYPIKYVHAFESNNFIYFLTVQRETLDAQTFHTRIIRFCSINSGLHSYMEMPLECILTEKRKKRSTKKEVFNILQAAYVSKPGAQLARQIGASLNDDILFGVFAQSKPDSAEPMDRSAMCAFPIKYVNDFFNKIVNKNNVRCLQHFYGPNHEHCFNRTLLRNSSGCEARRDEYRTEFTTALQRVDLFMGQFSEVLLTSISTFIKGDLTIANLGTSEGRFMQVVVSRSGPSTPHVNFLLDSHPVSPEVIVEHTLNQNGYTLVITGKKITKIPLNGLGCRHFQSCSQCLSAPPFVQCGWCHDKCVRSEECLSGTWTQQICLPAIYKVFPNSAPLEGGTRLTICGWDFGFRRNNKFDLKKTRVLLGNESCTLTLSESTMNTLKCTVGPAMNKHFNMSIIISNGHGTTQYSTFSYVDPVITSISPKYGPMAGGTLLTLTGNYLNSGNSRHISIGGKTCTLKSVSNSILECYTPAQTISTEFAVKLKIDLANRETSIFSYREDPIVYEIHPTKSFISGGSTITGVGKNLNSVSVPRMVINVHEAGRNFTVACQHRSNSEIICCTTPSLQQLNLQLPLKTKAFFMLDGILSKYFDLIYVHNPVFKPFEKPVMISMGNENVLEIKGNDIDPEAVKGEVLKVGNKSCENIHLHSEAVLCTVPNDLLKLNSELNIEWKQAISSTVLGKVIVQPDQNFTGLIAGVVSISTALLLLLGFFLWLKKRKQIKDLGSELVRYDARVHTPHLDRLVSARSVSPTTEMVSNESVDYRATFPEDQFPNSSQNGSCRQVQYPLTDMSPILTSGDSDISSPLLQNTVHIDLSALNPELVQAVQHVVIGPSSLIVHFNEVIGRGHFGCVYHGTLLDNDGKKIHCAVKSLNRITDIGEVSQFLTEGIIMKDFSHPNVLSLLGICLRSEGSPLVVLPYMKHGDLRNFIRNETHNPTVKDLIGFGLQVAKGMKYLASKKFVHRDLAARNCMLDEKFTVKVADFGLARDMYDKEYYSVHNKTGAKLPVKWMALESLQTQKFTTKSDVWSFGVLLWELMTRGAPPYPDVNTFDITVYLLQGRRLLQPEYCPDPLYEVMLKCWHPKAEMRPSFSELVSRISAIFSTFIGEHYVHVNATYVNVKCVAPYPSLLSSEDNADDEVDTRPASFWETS

Structure (SMILES)	IC50 [1] [nM]	IC50 [2] [nM]
Cc1nc(-c2ccccc2)sc1C(=O)Nc1ccc(Oc2ccnc(N)c2Cl)c(F)c1 [Example 31, N-(4-((2-amino-3-chloropyridin-4-yl)oxy)-3-fluorophenyl)-4-methyl-2-phenylthiazole-5-carboxamide]	> 5000	500 to 5000
CCOC(=O)N(c1c(Oc2ccc(NC(=O)c3cnn(-c4ccccc4)c3CC)cc2F)ccnc1N)C(C)C [Example 35, Ethyl(2-amino-4-(4-(5-ethyl-1-phenyl-1H-pyrazole-4-carboxamido)-2-fluorophenoxy)pyridin-3-yl)(isopropyl)carbamate]	> 5000	500 to 5000
Nc1nccc(Oc2ccc(NC(=O)c3cnn(-c4ccccc4)c3-c3ccccc3)cc2F)c1Cl [Example 19, N-(4-((2-amino-3-chloropyridin-4-yl)oxy)-3-fluorophenyl)-1,5-diphenyl-1H-pyrazole-4-carboxamide]	500 to 5000	50 to 500
Nc1nccc(Oc2ccc(NC(=O)c3ncn(-c4ccccc4)c3C(F)(F)F)cc2F)c1N [Example 27]	> 5000	50 to 500
Cc1nc(C(=O)Nc2ccc(Oc3ccnc(N)c3Cl)c(F)c2)c(C)n1-c1ccccc1 [Example 14, N-(4-((2-amino-3-chloropyridin-4-yl)oxy)-3-fluorophenyl)-2,5-dimethyl-1-phenyl-1H-imidazole-4-carboxamide]	500 to 5000	50 to 500
Nc1nccc(Oc2ccc(NC(=O)c3cnn(-c4ccccc4)c3C(F)(F)F)cc2F)c1N [Example 28]	> 5000	50 to 500
Nc1ncnc(Oc2ccc(NC(=O)c3ccn(-c4ccccc4)n3)cc2F)c1Cl [Example 53, N-[4-(6-amino-5-chloro-pyrimidin-4-yl)oxy-3-fluorophenyl]-1-phenyl-pyrazole-3-carboxamide]	> 5000	500 to 5000
Nc1nccc(Oc2ccc(NC(=O)c3cnn(-c4ccccc4Cl)c3C(F)(F)F)cc2F)c1Cl [Example 36, N-(4-((2-amino-3-chloropyridin-4-yl)oxy)-3-fluorophenyl)-1-(2-chlorophenyl)-5-(trifluoromethyl)-1H-pyrazole-4-carboxamide]	500 to 5000	50 to 500
Nc1nccc(Oc2ccc(NC(=O)c3cnn(-c4ccccc4)c3)cc2F)c1Cl [Example 7, N-(4-((2-amino-3-chloropyridin-4-yl)oxy)-3-fluorophenyl)-1-phenyl-1H-pyrazole-4-carboxamide]	> 5000	500 to 5000
Nc1ncnc(Oc2ccc(NC(=O)c3cnn(-c4ccccc4F)c3C(F)(F)F)cc2F)c1Cl [Example 52, N-[4-(6-amino-5-chloro-pyrimidin-4-yl)oxy-3-fluorophenyl]-1-(2-fluorophenyl)-5-(trifluoromethyl)pyrazole-4-carboxamide]	500 to 5000	50 to 500
O=C(Nc1ccc(Oc2ccnc(NC(=O)C3CC3)c2Cl)c(F)c1)c1ncn(-c2ccccc2)c1C(F)(F)F [Example 23]	> 5000	50 to 500
Nc1nccc(Oc2ccc(NC(=O)c3cnn(C4CCCOC4)c3C(F)(F)F)cc2F)c1Cl (stereo not drawn) [Example 8, N-(4-((2-amino-3-chloropyridin-4-yl)oxy)-3-fluorophenyl)-1-(tetrahydro-2H-pyran-3-yl)-5-(trifluoromethyl)-1H-pyrazole-4-carboxamide]	500 to 5000	50 to 500
Cc1nn(-c2ccccc2)c(C)c1C(=O)Nc1ccc(Oc2ncnc(N)c2Cl)c(F)c1 [Example 48, N-(4-((6-amino-5-chloro-pyrimidin-4-yl)oxy)-3-fluorophenyl)-3,5-dimethyl-1-phenyl-1H-pyrazole-4-carboxamide]	> 5000	50 to 500

More lines, now with the values ahead:

IC50 [1] [nM]	IC50 [2] [nM]	Structure (SMILES)
500 to 5000	50 to 500	Nc1ncnc(Oc2ccc(NC(=O)c3cnn(-c4ccccc4)c3-c3ccccc3)cc2F)c1Cl [Example 59, N-[4-(6-amino-5-chloro-pyrimidin-4-yl)oxy-3-fluorophenyl]-1,5-diphenyl-pyrazole-4-carboxamide]
> 5000	< 50	Nc1nccc(Oc2ccc(NC(=O)c3cnn(-c4ccccc4)c3C(F)(F)F)cc2F)c1I [Example 43, N-(4-((2-amino-3-iodopyridin-4-yl)oxy)-3-fluorophenyl)-1-phenyl-5-(trifluoromethyl)-1H-pyrazole-4-carboxamide]
> 5000	> 5000	O=C(Nc1ccc(Oc2ccnc(Cl)c2)c(F)c1)c1ncn(-c2ccccc2)c1C(F)(F)F [Example 24]
500 to 5000	> 5000	Cc1ccc(-n2ncc(C(=O)Nc3ccc(Oc4ccnc(N)c4Cl)c(F)c3)c2C(F)(F)F)cc1 [Example 15, N-(4-((2-amino-3-chloropyridin-4-yl)oxy)-3-fluorophenyl)-1-(p-tolyl)-5-(trifluoromethyl)-1H-pyrazole-4-carboxamide]
> 5000	50 to 500	Cc1c(C(=O)Nc2ccc(Oc3ccnc(N)c3Cl)c(F)c2)nnn1-c1ccccc1 [Example 41, N-(4-((2-amino-3-chloropyridin-4-yl)oxy)-3-fluorophenyl)-5-methyl-1-phenyl-1H-1,2,3-triazole-4-carboxamide]
> 5000	50 to 500	Nc1nccc(Oc2ccc(NC(=O)c3cnn(-c4ccccc4)c3C(F)(F)F)c(F)c2)c1Cl [Example 45, N-(4-((2-amino-3-chloropyridin-4-yl)oxy)-2-fluorophenyl)-1-phenyl-5-(trifluoromethyl)-1H-pyrazole-4-carboxamide]
500 to 5000	50 to 500	CC(C)(C)n1ncc(C(=O)Nc2ccc(Oc3ccnc(N)c3Cl)c(F)c2)c1C(F)(F)F [Example 17, N-(4-((2-amino-3-chloropyridin-4-yl)oxy)-3-fluorophenyl)-1-(tert-butyl)-5-(trifluoromethyl)-1H-pyrazole-4-carboxamide]
> 5000	50 to 500	Cc1nn(-c2ccccc2)c(C)c1C(=O)Nc1ccc(Oc2ccnc(N)c2Cl)c(F)c1 [Example 4, N-(4-((2-amino-3-chloropyridin-4-yl)oxy)-3-fluorophenyl)-3,5-dimethyl-1-phenyl-1H-pyrazole-4-carboxamide]
> 5000	> 5000	Nc1ncnc(Oc2ccc(NC(=O)c3cn(-c4ccccc4)nn3)cc2F)c1Cl [Example 54, N-[4-(6-amino-5-chloro-pyrimidin-4-yl)oxy-3-fluorophenyl]-1-phenyl-triazole-4-carboxamide]
> 5000	> 5000	Nc1nccc(Oc2ccc(NC(=O)c3cn(-c4ccccc4)nn3)cc2F)c1Cl [Example 40, N-(4-((2-amino-3-chloropyridin-4-yl)oxy)-3-fluorophenyl)-1-phenyl-1H-1,2,3-triazole-4-carboxamide]
> 5000	50 to 500	Nc1nccc(Oc2ccc(NC(=O)c3cnn(-c4ccccc4)c3F)cc2F)c1Cl [Example 20, N-(4-((2-amino-3-chloropyridin-4-yl)oxy)-3-fluorophenyl)-5-fluoro-1-phenyl-1H-pyrazole-4-carboxamide]
